≈ marks a conversion by molar mass, not a printed value. One block for each compound: values may come before it.
How the values were obtained:
Type in all cases: functional
Pseudomonas aeruginosa [1] = experiment: Antibacterial activity against Pseudomonas aeruginosa assessed as bacterial growth inhibition by broth microdilution assay
Escherichia coli [2] = experiment: Antibacterial activity against Escherichia coli ATCC35218 assessed as bacterial growth inhibition measured after 18 to 24 hrs inhibition by broth microdilution assay; settings: time 18-24 hrs
Escherichia coli [3] = experiment: Antibacterial activity against Escherichia coli assessed as bacterial growth inhibition measured after 18 to 24 hrs by two fold serial dilution assay; settings: time 18-24 hrs
Staphylococcus aureus [4] = experiment: Antibacterial activity against methicillin sensitive Staphylococcus aureus assessed as bacterial growth inhibition measured after 18 to 24 hrs by two fold serial dilution assay; settings: time 18-24 hrs
Klebsiella pneumoniae [5] = experiment: Antibacterial activity against Klebsiella pneumoniae assessed as bacterial growth inhibition measured after 18 to 24 hrs by two fold serial dilution assay; settings: time 18-24 hrs
Pseudomonas aeruginosa [6] = experiment: Antibacterial activity against Pseudomonas aeruginosa assessed as bacterial growth inhibition measured after 18 to 24 hrs by two fold serial dilution assay; settings: time 18-24 hrs
Staphylococcus aureus [7] = experiment: Antibacterial activity against Staphylococcus aureus ATCC 29213 assessed as bacterial growth inhibition by broth microdilution assay
Acinetobacter baumannii = experiment: Antibacterial activity against Acinetobacter baumannii assessed as bacterial growth inhibition by agar dilution assay
Pseudomonas aeruginosa [8] = experiment: Antibacterial activity against Pseudomonas aeruginosa ATCC 27853 assessed as bacterial growth inhibition by agar dilution assay
Staphylococcus aureus [9] = experiment: Antibacterial activity against Staphylococcus aureus assessed as bacterial growth inhibition by agar dilution assay
Staphylococcus aureus [10] = experiment: Antibacterial activity against methicillin resistant Staphylococcus aureus assessed as bacterial growth inhibition by agar dilution assay
Escherichia coli [11] = experiment: Antibacterial activity against Escherichia coli ATCC 25922 assessed as bacterial growth inhibition by agar dilution assay
Klebsiella pneumoniae [12] = experiment: Antibacterial activity against Klebsiella pneumoniae assessed as bacterial growth inhibition by agar dilution assay
Staphylococcus aureus [13] = experiment: Antibacterial activity against Staphylococcus aureus ATCC 25923 assessed as bacterial growth inhibition by agar dilution assay
Staphylococcus aureus [14] = experiment: Antibacterial activity against Staphylococcus aureus ATCC 29213 assessed as bacterial growth inhibition by agar dilution assay
Staphylococcus aureus [15] = experiment: Antibacterial activity against clinical isolate aminoglycosides/tetracycline/methicillin resistant Staphylococcus aureus NRS 1 assessed as bacterial growth inhibition measured after 16 to 18 hrs by serial dilution method; settings: time 16-18 hrs
Staphylococcus aureus [16] = experiment: Antibacterial activity against clinical isolate erythromycin/methicillin resistant Staphylococcus aureus NRS 70 assessed as bacterial growth inhibition measured after 16 to 18 hrs by serial dilution method; settings: time 16-18 hrs
Staphylococcus aureus [17] = experiment: Antibacterial activity against clinical isolate oxacillin/tetracycline/methicillin resistant Staphylococcus aureus NRS 100 assessed as bacterial growth inhibition measured after 16 to 18 hrs by serial dilution method; settings: time 16-18 hrs
Staphylococcus aureus [18] = experiment: Antibacterial activity against clinical isolate gentamycin/methicillin resistant Staphylococcus aureus NRS 108 assessed as bacterial growth inhibition measured after 16 to 18 hrs by serial dilution method; settings: time 16-18 hrs
Staphylococcus aureus [19] = experiment: Antibacterial activity against clinical isolate linezolid/methicillin resistant Staphylococcus aureus NRS 271 assessed as bacterial growth inhibition measured after 16 to 18 hrs by serial dilution method; settings: time 16-18 hrs
Staphylococcus aureus [20] = experiment: Antibacterial activity against fluoroquinolone/methicillin resistant Staphylococcus aureus clinical isolate 19-25 assessed as bacterial growth inhibition measured after 16 to 18 hrs by serial dilution method; settings: time 16-18 hrs
Staphylococcus aureus [21] = experiment: Antibacterial activity against fluoroquinolone/methicillin resistant Staphylococcus aureus clinical isolate 19-26 assessed as bacterial growth inhibition measured after 16 to 18 hrs by serial dilution method; settings: time 16-18 hrs
Staphylococcus aureus [22] = experiment: Antibacterial activity against fluoroquinolone/methicillin resistant Staphylococcus aureus clinical isolate 19-27 assessed as bacterial growth inhibition measured after 16 to 18 hrs by serial dilution method; settings: time 16-18 hrs
Staphylococcus aureus [23] = experiment: Antibacterial activity against Staphylococcus aureus Newman assessed as bacterial growth inhibition measured after 16 to 18 hrs by serial dilution method; settings: time 16-18 hrs
Staphylococcus aureus [24] = experiment: Antibacterial activity against vancomycin-intermediate methicillin resistant Staphylococcus aureus ATCC 700699 assessed as bacterial growth inhibition measured after 16 to 18 hrs by serial dilution method; settings: time 16-18 hrs
Staphylococcus aureus [25] = experiment: Antibacterial activity against methicillin resistant Staphylococcus aureus ATCC 33591 assessed as bacterial growth inhibition measured after 16 to 18 hrs by serial dilution method; settings: time 16-18 hrs
Staphylococcus aureus [26] = experiment: Antibacterial activity against methicillin resistant Staphylococcus aureus ATCC 43300 assessed as bacterial growth inhibition measured after 16 to 18 hrs by serial dilution method; settings: time 16-18 hrs
Escherichia coli [27] = experiment: Antibacterial activity against Escherichia coli assessed as bacterial growth inhibition measured after 20 hrs by serial dilution method
Klebsiella pneumoniae [28] = experiment: Antibacterial activity against Klebsiella pneumoniae assessed as bacterial growth inhibition measured after 20 hrs by serial dilution method
Pseudomonas aeruginosa [29] = experiment: Antibacterial activity against Pseudomonas aeruginosa assessed as bacterial growth inhibition measured after 20 hrs by serial dilution method
Staphylococcus aureus [30] = experiment: Antibacterial activity against Staphylococcus aureus assessed as bacterial growth inhibition measured after 20 hrs by serial dilution method
Staphylococcus aureus [31] = experiment: Antibacterial activity against Staphylococcus aureus ATCC 6538p assessed as bacterial growth inhibition by agar dilution method
[32] = tested on: Staphylococcus epidermidis; experiment: Antibacterial activity against Staphylococcus epidermidis ATCC 12228 assessed as bacterial growth inhibition by agar dilution method
Bacillus subtilis = experiment: Antibacterial activity against Bacillus subtilis PTCC 1023 assessed as bacterial growth inhibition by agar dilution method
Escherichia coli [33] = experiment: Antibacterial activity against Escherichia coli ATCC 8739 assessed as bacterial growth inhibition by agar dilution method
Klebsiella pneumoniae [34] = experiment: Antibacterial activity against Klebsiella pneumoniae ATCC 10031 assessed as bacterial growth inhibition by agar dilution method
Enterobacter cloacae = experiment: Antibacterial activity against Enterobacter cloacae PTCC 1003 assessed as bacterial growth inhibition by agar dilution method
Staphylococcus aureus [35] = experiment: Antibacterial activity against Staphylococcus aureus assessed as bacterial growth inhibition measured after 24 hrs by agar cup diffusion assay
Escherichia coli [36] = experiment: Antibacterial activity against Escherichia coli assessed as bacterial growth inhibition measured after 24 hrs by agar cup diffusion assay
Pseudomonas aeruginosa [37] = experiment: Antibacterial activity against Pseudomonas aeruginosa assessed as bacterial growth inhibition measured after 24 hrs by agar cup diffusion assay
Candida albicans = experiment: Antifungal activity against Candida albicans assessed as fungal growth inhibition measured after 24 hrs by agar cup diffusion assay
Escherichia coli [38] = experiment: Antibacterial activity against Escherichia coli ATCC 25922 assessed as bacterial growth inhibition by agar disc diffusion assay
Pseudomonas aeruginosa [39] = experiment: Antibacterial activity against Pseudomonas aeruginosa ATCC 27853 assessed as bacterial growth inhibition by agar disc diffusion assay
Staphylococcus aureus [40] = experiment: Antibacterial activity against Staphylococcus aureus ATCC 25923 assessed as bacterial growth inhibition by agar disc diffusion assay
Staphylococcus aureus [41] = experiment: Antibacterial activity against Staphylococcus aureus clinical isolate 1 assessed as bacterial growth inhibition by agar disc diffusion assay
Escherichia coli [42] = experiment: Antibacterial activity against Escherichia coli clinical isolate 1 assessed as bacterial growth inhibition by agar disc diffusion assay
Pseudomonas aeruginosa [43] = experiment: Antibacterial activity against Pseudomonas aeruginosa clinical isolate 1 assessed as bacterial growth inhibition by agar disc diffusion assay
Alternaria = experiment: Antifungal activity against Alternaria assessed as fungal growth inhibition measured after 7 days by agar disc diffusion assay; settings: 168 h, time 7 day
[44] = tested on: Fusarium oxysporum f. sp. lycopersici; experiment: Antifungal activity against Fusarium oxysporum f. sp. lycopersici assessed as fungal growth inhibition measured after 7 days by agar disc diffusion assay; settings: 168 h, time 7 day

SMILES: COc1c(N2C[C@H]3CCCN(C(=O)Cn4cc(CN5C(=O)C(=O)c6ccccc65)nn4)[C@H]3C2)c(F)cc2c(=O)c(C(=O)O)cn(C3CC3)c12
MIC (Pseudomonas aeruginosa [1]): ≤ 0.03 µg/mL | MIC (Escherichia coli [2]): ≤ 0.03 µg/mL | MIC (Escherichia coli [3]): ≤ 0.03 µg/mL | MIC (Staphylococcus aureus [4]): ≤ 0.03 µg/mL | MIC (Klebsiella pneumoniae [5]): ≤ 0.03 µg/mL | MIC (Pseudomonas aeruginosa [6]): ≤ 0.03 µg/mL

SMILES: O=C1C(=O)N(Cc2cn(CC(=O)N3CCN(c4cc5c(cc4F)c(=O)c(C(=O)O)cn5C4CC4)CC3)nn2)c2ccc(F)cc21
MIC (Pseudomonas aeruginosa [1]): ≤ 0.03 µg/mL | MIC (Escherichia coli [2]): ≤ 0.03 µg/mL | MIC (Escherichia coli [3]): ≤ 0.03 µg/mL | MIC (Staphylococcus aureus [4]): ≤ 0.03 µg/mL | MIC (Klebsiella pneumoniae [5]): ≤ 0.03 µg/mL | MIC (Pseudomonas aeruginosa [6]): ≤ 0.03 µg/mL

MIC (Staphylococcus aureus [7]): 0.031 µg/mL (≈ 0.0597 µM)
SMILES: COc1ccc2nc(CN3CCN(c4cc5c(cc4F)c(=O)c(C(=O)O)cn5C4CC4)CC3)[nH]c(=O)c2c1

SMILES: CCOC(=O)c1cn(Cc2nc3ccccc3n2Cc2ccc(Cl)cc2Cl)c2cc(Cl)c(F)cc2c1=O
MIC (Acinetobacter baumannii): 4 µg/mL (≈ 7.16 µM) | MIC (Pseudomonas aeruginosa [8]): 4 µg/mL (≈ 7.16 µM) | MIC (Staphylococcus aureus [9]): 4 µg/mL (≈ 7.16 µM) | MIC (Staphylococcus aureus [10]): 4 µg/mL (≈ 7.16 µM) | MIC (Escherichia coli [11]): 1 µg/mL (≈ 1.79 µM) | MIC (Klebsiella pneumoniae [12]): 1 µg/mL (≈ 1.79 µM) | MIC (Staphylococcus aureus [13]): 1 µg/mL (≈ 1.79 µM) | MIC (Staphylococcus aureus [14]): 1 µg/mL (≈ 1.79 µM)

SMILES: Cc1ccc(Oc2ccnc(Nc3ccc4c(=O)c(C(=O)O)cn(C5CC5)c4c3)n2)cc1
MIC (Staphylococcus aureus [15]): ≤ 0.17 µg/mL | MIC (Staphylococcus aureus [16]): ≤ 0.17 µg/mL | MIC (Staphylococcus aureus [17]): ≤ 0.17 µg/mL | MIC (Staphylococcus aureus [18]): ≤ 0.17 µg/mL | MIC (Staphylococcus aureus [19]): ≤ 0.17 µg/mL | MIC (Staphylococcus aureus [20]): ≤ 0.17 µg/mL | MIC (Staphylococcus aureus [21]): ≤ 0.17 µg/mL | MIC (Staphylococcus aureus [22]): ≤ 0.17 µg/mL | MIC (Staphylococcus aureus [23]): ≤ 0.17 µg/mL | MIC (Staphylococcus aureus [24]): ≤ 0.17 µg/mL | MIC (Staphylococcus aureus [25]): ≤ 0.17 µg/mL | MIC (Staphylococcus aureus [26]): ≤ 0.17 µg/mL

MIC (Escherichia coli [27]): 0.24 µg/mL (≈ 0.841 µM) | MIC (Klebsiella pneumoniae [28]): 0.24 µg/mL (≈ 0.841 µM) | MIC (Pseudomonas aeruginosa [29]): 0.24 µg/mL (≈ 0.841 µM) | MIC (Staphylococcus aureus [30]): 0.24 µg/mL (≈ 0.841 µM)
SMILES: Cc1cccc2cc(/C=C3\NC(=S)NC3=O)c(=O)[nH]c12

MIC (Staphylococcus aureus [31]): 0.015 µg/mL (≈ 0.0235 µM) | MIC [32]: 0.015 µg/mL (≈ 0.0235 µM) | MIC (Bacillus subtilis): 0.015 µg/mL (≈ 0.0235 µM) | MIC (Escherichia coli [33]): 0.015 µg/mL (≈ 0.0235 µM) | MIC (Klebsiella pneumoniae [34]): 0.015 µg/mL (≈ 0.0235 µM) | MIC (Enterobacter cloacae): 0.015 µg/mL (≈ 0.0235 µM)
SMILES: CCOC(=O)C(C(=O)OCC)C(=O)c1cn(C2CC2)c2cc(N3CCN(/N=N/c4nc(OC)cc(OC)n4)CC3)c(F)cc2c1=O

MIC (Staphylococcus aureus [35]): 0.53 µg/mL (≈ 0.885 µM) | MIC (Escherichia coli [36]): 0.53 µg/mL (≈ 0.885 µM) | MIC (Pseudomonas aeruginosa [37]): 0.53 µg/mL (≈ 0.885 µM) | MIC (Candida albicans): 2.03 µg/mL (≈ 3.39 µM)
SMILES: O=C(/C=C/c1ccc(F)cc1)c1ccc(NC(=O)N2CCN(c3cc4c(cc3F)c(=O)c(C(=O)O)cn4C3CC3)CC2)cc1

SMILES: CCOP(=O)(OCC)C(NS(=O)(=O)Nc1ccccc1OC)c1cc2cccc(C)c2[nH]c1=O (stereo not given)
MIC (Escherichia coli [38]): 0.125 µg/mL (≈ 0.245 µM) | MIC (Pseudomonas aeruginosa [39]): 0.125 µg/mL (≈ 0.245 µM) | MIC (Staphylococcus aureus [40]): 0.125 µg/mL (≈ 0.245 µM) | MIC (Staphylococcus aureus [41]): 0.125 µg/mL (≈ 0.245 µM) | MIC (Escherichia coli [42]): 0.125 µg/mL (≈ 0.245 µM) | MIC (Pseudomonas aeruginosa [43]): 0.125 µg/mL (≈ 0.245 µM) | MIC (Alternaria): 0.125 µg/mL (≈ 0.245 µM) | MIC [44]: 0.125 µg/mL (≈ 0.245 µM)

Reference: ChEMBL document CHEMBL5360532, “Current scenario of quinolone hybrids with potential antibacterial activity against ESKAPE pathogens” (Eur J Med Chem, 2023)
